Values after ≈ are worked out from the molar mass of the structure shown. Marks after values point to notes of the source that are not given here.
Tests used:
[1] = system: low level CIP resistant strains of S. aureus ATCC 29213 (ParC mutation); assay: microbe, parasite or virus in culture; format: cell-based; conditions: Staphylococcus aureus, ATCC29213
Enterococcus ATCC 29212 = assay: organism not typed; format: cell-based, E. faecalis
A. baumannii KB304 = conditions: starred: previously determined; cited from earlier work
A. baumannii KB349 = conditions: starred: previously determined; cited from earlier work
Enterococcus ATCC 19433 = assay: organism not typed; format: cell-based, E. faecalis
physchem [2] = conditions: pH 7.4 PBS; three replicates ± SEM
Protocol: Enough PBS was added to make a 1 mg/mL solution. Compounds were then assessed by LC-MS and compared to a calibration curve to determine the solubility. […] Data shown is from three independent replicates±SEM. […] Between DMSO additions, the vial was vortexed and sonicated.
The compound was vortexed for ˜30 seconds before being placed into a bath sonicator (Cole Parmer, ultrasonic cleaner) for 1 h. […] The tubes were vortexed again for 30 s before being centrifuged at maximum speed (13,000×g) for 10 minutes. The supernatant was then filtered through a 0.22 μm syringe filter (Millipore Millex MP). […] Three independent replicates of each compound were performed. A calibration curve for each compound was generated from 1-400 μM by dissolving the compound in DMSO and making dilutions of the stock in DMSO. […] The concentration of the samples was calculated based on the calibration curves.

physchem [3] = conditions: organic solvent or mixture, thermodynamic from solid
[4] = system: S. aureus 29213 (WT GyrA and WT ParC); assay: microbe, parasite or virus in culture; format: cell-based; conditions: Staphylococcus aureus; WT GyrA and WT ParC; read-out: MIC against S. aureus 29213
Protocol: Susceptibility testing was performed in triplicate using the microdilution broth method as outlined by the Clinical and Laboratory Standards Institute CLSI^52. MH broth was used.

SMILES	solubility (physchem [3]) [mM]	MIC [4] [µg/mL]	also measured
O=C(O)c1cn(C2CC2)c2cc(N3CCNCC3)c(F)cc2c1=O [CIP, ciprofloxacin, reference compound]			MIC [1]: 4 to 8 µg/mL (≈ 12.1 to 24.1 µM); MIC (Enterococcus ATCC 29212): 0.5 to 2 µg/mL (≈ 1.51 to 6.04 µM); CIP (S/I/R) (Enterococcus ATCC 29212; ATCC 29212): S (sensitive (S) if it had an MIC≤4 μg mL^−1); CIP MIC (A. baumannii KB304): 24* ^ μg mL^−1; CIP MIC (A. baumannii KB349): >32* μg mL^−1; MIC (Enterococcus ATCC 19433): 2 µg/mL (≈ 6.04 µM); CIP (S/I/R) (Enterococcus ATCC 19433; ATCC 19433): S (sensitive (S) if it had an MIC≤4 μg mL^−1)
CCc1cc(=O)n(C)c2c3c4c(cc12)c(C)cc(=O)n4CO3 [Compound 4]	4.7 (≈ 1390 µg/mL)	8 (≈ 27 µM)	Solubility in pH 7.4 PBS (physchem [2]): 53 μM
Cc1cc(=O)n(C)c2c3c4c(cc12)c(C)cc(=O)n4C(C)O3 (stereo not shown) [Compound 5]	3.4 (≈ 1010 µg/mL)	4 (≈ 13.5 µM)	
CCCc1cc(=O)n2c3c(c4c(cc13)c(C)cc(=O)n4C)OC2 [Compound 6]	6.4 (≈ 1990 µg/mL)	16 (≈ 51.6 µM)	
CCCc1cc(=O)n(C)c2c3c4c(cc12)c(C)cc(=O)n4CO3 [Compound 7]	5.8 (≈ 1800 µg/mL)	16 (≈ 51.6 µM)	
CCCCCn1c(=O)cc(C)c2cc3c(C)cc(=O)n4c3c(c21)OC4 [Compound 9]	26.9 (≈ 9100 µg/mL)	32 (≈ 94.6 µM)	
CCCCCCn1c(=O)cc(C)c2cc3c(C)cc(=O)n4c3c(c21)OC4 [Compound 10]	56.7 (≈ 20000 µg/mL)	> 64	
Cc1cc(=O)n2c3c(c4c(cc13)c(C)cc(=O)n4CC(C)C)OC2 [Compound 11]	7.1 (≈ 2300 µg/mL)	> 32	

Source: US9920069B2, “Compounds for treatment of fluoroquinolone-resistant bacteria” (The Board of Trustees of the University of Illinois, priority 2014, dated 2018)
